From ChEMBL document CHEMBL1121977, “alpha 2 adrenoceptors: classification, localization, mechanisms, and targets for drugs” (J Med Chem, 1982)

These compounds were tested against T1, Adrenergic receptor alpha-2 (Rattus norvegicus, UniProt P22086+P19328+P22909) (assay: Displacement of [3H]clonidine from Alpha-2 adrenergic receptor of rat brain membranes).
T1 sequence (P22086 whole entry): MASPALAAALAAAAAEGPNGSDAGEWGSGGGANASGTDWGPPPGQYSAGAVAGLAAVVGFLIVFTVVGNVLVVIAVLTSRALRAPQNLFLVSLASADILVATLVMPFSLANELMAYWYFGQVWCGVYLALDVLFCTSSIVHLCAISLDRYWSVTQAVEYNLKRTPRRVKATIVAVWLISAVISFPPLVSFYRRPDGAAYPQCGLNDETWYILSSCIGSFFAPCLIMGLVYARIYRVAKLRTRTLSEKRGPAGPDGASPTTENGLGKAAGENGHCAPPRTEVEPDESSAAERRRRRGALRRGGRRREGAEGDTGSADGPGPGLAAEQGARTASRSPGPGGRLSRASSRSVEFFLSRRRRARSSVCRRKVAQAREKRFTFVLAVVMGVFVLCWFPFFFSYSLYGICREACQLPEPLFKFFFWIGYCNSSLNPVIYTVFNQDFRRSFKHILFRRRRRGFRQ
T1 sequence (P19328 whole entry): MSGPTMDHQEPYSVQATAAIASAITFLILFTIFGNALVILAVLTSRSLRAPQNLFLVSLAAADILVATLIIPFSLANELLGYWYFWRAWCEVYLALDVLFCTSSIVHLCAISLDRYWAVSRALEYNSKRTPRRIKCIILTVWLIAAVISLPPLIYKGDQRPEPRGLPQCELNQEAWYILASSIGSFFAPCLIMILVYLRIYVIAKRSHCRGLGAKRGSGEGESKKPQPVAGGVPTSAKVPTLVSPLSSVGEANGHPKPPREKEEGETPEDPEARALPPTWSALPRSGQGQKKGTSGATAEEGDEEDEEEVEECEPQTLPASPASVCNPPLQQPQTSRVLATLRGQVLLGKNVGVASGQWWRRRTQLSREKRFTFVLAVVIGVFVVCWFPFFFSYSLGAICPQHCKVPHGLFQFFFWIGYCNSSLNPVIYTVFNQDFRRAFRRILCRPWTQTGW
T1 sequence (P22909 whole entry): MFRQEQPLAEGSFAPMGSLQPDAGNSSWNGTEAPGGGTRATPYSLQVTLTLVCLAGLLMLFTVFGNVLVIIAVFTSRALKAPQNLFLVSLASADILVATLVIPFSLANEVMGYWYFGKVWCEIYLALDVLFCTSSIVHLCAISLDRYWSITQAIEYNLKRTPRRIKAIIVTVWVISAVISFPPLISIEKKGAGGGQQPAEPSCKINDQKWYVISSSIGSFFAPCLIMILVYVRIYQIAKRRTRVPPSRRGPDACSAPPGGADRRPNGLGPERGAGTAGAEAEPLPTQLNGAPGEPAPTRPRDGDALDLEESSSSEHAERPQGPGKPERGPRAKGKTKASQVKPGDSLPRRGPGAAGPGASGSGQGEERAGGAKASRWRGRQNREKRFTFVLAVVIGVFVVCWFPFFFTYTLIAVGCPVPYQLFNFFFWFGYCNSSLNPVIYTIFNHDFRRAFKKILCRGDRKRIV
Type: cell membranes, Membrane
c1cc2c(c(NC3=NCCN3)c1)CCCC2 [TRAMAZOLINE] was tested, and the Ki was 4.2 nM. For c1ccc(CC2=NCCN2)cc1 [TOLAZOLINE], the Ki was 180 nM. C[C@H](N)[C@H](O)c1ccc(O)c(O)c1 [LEVONORDEFRIN] showed a Ki of 7.7 nM. COc1cccc(OC)c1OCCNCC1COc2ccccc2O1 (centres undefined) gave a Ki of 200 nM.
